Test results as given in ChEMBL document CHEMBL4706752 (ACS Med Chem Lett, 2021).
pEC50: −log10 of the molar value.

How the values were obtained:
[1] = Clearance in Balb/c mouse at 2 mg/kg, iv; assay type: ADME, organism-based; settings: in vivo
[2] = AUC in Balb/c mouse at 2 mg/kg, iv; assay type: ADME, organism-based; parameters: dose 2 mg/kg; settings: in vivo
[3] = Apparent permeability across apical to basolateral membrane in human Caco2 cells; assay type: ADME, cell-based; settings: Caco-2
[4] = tested on: Mus musculus; test: Suppression of ear thickness in C57BL/6 mouse model of IL-23 induced acanthosis model of psoriasis assessed as AUC of %change in ear thickness at 20 mg/kg, po BID for 10 days measured every other day; assay type: functional; settings: time 10 day
[5] = target: T1, Oxysterols receptor LXR-alpha (Homo sapiens, UniProt Q13133); test: Inhibition of LXRalpha (unknown origin)
T1 sequence (Q13133 whole entry): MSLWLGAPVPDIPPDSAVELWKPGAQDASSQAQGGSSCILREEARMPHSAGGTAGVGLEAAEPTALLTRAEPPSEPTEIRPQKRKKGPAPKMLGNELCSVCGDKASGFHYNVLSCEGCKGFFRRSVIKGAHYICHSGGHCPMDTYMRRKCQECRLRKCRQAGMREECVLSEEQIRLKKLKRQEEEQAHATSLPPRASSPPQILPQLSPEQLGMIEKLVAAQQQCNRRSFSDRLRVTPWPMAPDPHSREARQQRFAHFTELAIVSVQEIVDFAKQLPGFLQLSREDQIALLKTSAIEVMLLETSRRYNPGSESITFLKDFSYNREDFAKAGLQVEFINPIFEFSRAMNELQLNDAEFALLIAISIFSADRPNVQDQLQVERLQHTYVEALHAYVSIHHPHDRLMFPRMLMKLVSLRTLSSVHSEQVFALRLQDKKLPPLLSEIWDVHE

[6] = Decrease in LCN2 gene expression in C57BL/6 mouse model of IL-23 induced acanthosis model of psoriasis at 20 mg/kg, po BID for 10 days by RT-PCR analysis; assay type: functional; settings: C57BL/6, po, 240 h, time 10 day
[7] = Decrease in IL-17a gene expression in C57BL/6 mouse model of IL-23 induced acanthosis model of psoriasis at 20 mg/kg, po BID for 10 days by RT-PCR analysis; assay type: functional; settings: C57BL/6, po, 240 h, time 10 day

- clearance [1]: 2.1 mL/min/kg
- AUC [2]: 22.7 µM·h
- Papp A→B [3]: 11 ×10⁻⁶ cm/s
- pEC50 [5]: < 5.00
Structure (SMILES): C[C@@](O)(CS(C)(=O)=O)C(=O)N[C@@H]1CC[C@@]2(S(=O)(=O)c3ccc(F)cc3)c3ccc(C(F)(C(F)(F)F)C(F)(F)F)nc3CC[C@@H]12
- Activity [4]: 77.2%
- inhibition in vivo at 20 mg/kg [6]: 82.9%
- inhibition in vivo at 20 mg/kg [7]: 87.7%
